Peptide text beside a SMILES is read from it. * marks the point of attachment. X1 = CC(=O)N[C@@H]1[C@@H](O)[C@H](O[C@@H]2O[C@H](CO)[C@@H](O[C@@H]3O[C@H](CO[C@H]4O[C@H](CO)[C@@H](O)[C@H](O)[C@@H]4O[C@@H]4O[C@H](CO)[C@@H](O[C@@H]5O[C@H](CO[C@]6(C(=O)O)C[C@H](O)[C@@H](NC(C)=O)[C@H]([C@H](O)[C@H](O)CO)O6)[C@H](O)[C@H](O)[C@H]5O)[C@H](O)[C@H]4NC(C)=O)[C@@H](O)[C@H](O[C@H]4O[C@H](CO)[C@@H](O)[C@H](O)[C@@H]4O[C@@H]4O[C@H](CO)[C@@H](O[C@@H]5O[C@H](CO[C@]6(C(=O)O)C[C@H](O)[C@@H](NC(C)=O)[C@H]([C@H](O)[C@H](O)CO)O6)[C@H](O)[C@H](O)[C@H]5O)[C@H](O)[C@H]4NC(C)=O)[C@@H]3O)[C@H](O)[C@H]2NC(C)=O)[C@@H](CO)O[C@H]1NC(=O)C*
Assays:
[1] = system: C57BL/6JJcl mice; experiment: Test Example 7: Oral Glucose Tolerance Test (OGTT); format: in vivo
Description: After 30 minutes, a glucose solution was orally administered at a dose of 1 mg/g. Blood was collected from the orbits before the glucose administration and 30 minutes, 60 minutes and 120 minutes after the glucose administration. Blood-sugar levels were measured using ACCU-CHEK Aviva (Roche Diagnostics).
After the oral administration of the glucose solution to the mice fasted overnight, blood was collected over time, and blood-sugar levels were measured.
The correlation between the oligosaccharide chain structure and the activity was studied in mouse OGTT.

[2] = system: db/db (BKS.Cg-+Lepr db/+Lepr db/Jcl) mice; experiment: Test Example 8: effect of lowering blood-sugar levels in diabetes model mice; format: in vivo; conditions: 9 nmol/kg intraperitoneal
Description: The oligosaccharide chain added GLP-1 peptide prepared in Example 2, 3, 4, 21 or 23 or the GLP-1 prepared in Comparative Example 1 in a PBS solution (9 nmol/10 ml) was intraperitoneally administered at a dose of 10 ml/kg to BKS.Cg−+Lepr^db/+Lepr^db/Jcl mice (10 week old, male). Blood was collected from the orbits before the compound administration and 30 minutes, 60 minutes, 120 minutes, 180 minutes and 300 minutes after the compound administration. Blood-sugar levels were measured using ACCU-CHEK Aviva (Roche Diagnostics).
The db/db (BKS.Cg−+Lepr^db/+Lepr^db/Jcl) mice serving as diabetes model mice have a mutation in a receptor of leptin which is anorexigenic/energy metabolism-accelerating hormone and develops conditions such as obesity or hyperglycemia.
Blood-sugar levels were measured over time, and their effects of lowering blood-sugar levels were compared with that of the GLP-1 without oligosaccharide chain addition of Comparative Example 1.

[3] = 9 nmol/kg intraperitoneal 30 minutes before glucose 1 mg/g oral

Row | Structure (SMILES) | effect of suppressing rise in blood-sugar levels in OGTT [1, 3] | effect of lowering blood-sugar levels in db/db mice ([2]; 10-week-old male mice) | durability of effect of lowering blood-sugar levels in db/db mice ([2]; up to 300 minutes) | efficacy relative to 30Cys GLP-1-disialo and 36Cys GLP-1-disialo at the same dose in OGTT ([1]; 0.9 nmol/kg intraperitoneal) | dose dependence of activity of suppressing rise in blood-sugar levels in OGTT ([1]; doses 0.9 nmol/kg and 0.09 nmol/kg intraperitoneal) | effect of suppressing rise in blood-sugar levels in OGTT ([1]; 0.9 nmol/kg intraperitoneal) | activity of suppressing rise in blood-sugar levels in OGTT relative to GLP-1 (times) ([1]; from doses giving equivalent effect, GLP-1 at 9 nmol/kg)
1 | CC[C@H](C)[C@H](NC(=O)[C@H](Cc1ccccc1)NC(=O)[C@H](CCC(=O)O)NC(=O)[C@H](CCCCN)NC(=O)[C@H](C)NC(=O)[C@H](C)NC(=O)[C@H](CCC(N)=O)NC(=O)CNC(=O)[C@H](CCC(=O)O)NC(=O)[C@H](CC(C)C)NC(=O)[C@H](Cc1ccc(O)cc1)NC(=O)[C@H](CSCC(=O)N[C@@H]1O[C@H](CO)[C@@H](O[C@@H]2O[C@H](CO)[C@@H](O[C@@H]3O[C@H](CO[C@H]4O[C@H](CO)[C@@H](O)[C@H](O)[C@@H]4O[C@@H]4O[C@H](CO)[C@@H](O[C@@H]5O[C@H](CO[C@]6(C(=O)O)C[C@H](O)[C@@H](NC(C)=O)[C@H]([C@H](O)[C@H](O)CO)O6)[C@H](O)[C@H](O)[C@H]5O)[C@H](O)[C@H]4NC(C)=O)[C@@H](O)[C@H](O[C@H]4O[C@H](CO)[C@@H](O)[C@H](O)[C@@H]4O[C@@H]4O[C@H](CO)[C@@H](O[C@@H]5O[C@H](CO[C@]6(C(=O)O)C[C@H](O)[C@@H](NC(C)=O)[C@H]([C@H](O)[C@H](O)CO)O6)[C@H](O)[C@H](O)[C@H]5O)[C@H](O)[C@H]4NC(C)=O)[C@@H]3O)[C@H](O)[C@H]2NC(C)=O)[C@H](O)[C@H]1NC(C)=O)NC(=O)[C@H](CO)NC(=O)[C@@H](NC(=O)[C@H](CC(=O)O)NC(=O)[C@H](CO)NC(=O)[C@@H](NC(=O)[C@H](Cc1ccccc1)NC(=O)[C@@H](NC(=O)CNC(=O)[C@H](CCC(=O)O)NC(=O)[C@H](C)NC(=O)[C@@H](N)Cc1c[nH]cn1)[C@@H](C)O)[C@@H](C)O)C(C)C)C(=O)N[C@@H](C)C(=O)N[C@@H](Cc1c[nH]c2ccccc12)C(=O)N[C@@H](CC(C)C)C(=O)N[C@H](C(=O)N[C@@H](CCCCN)C(=O)NCC(=O)N[C@@H](CCCNC(=N)N)C(=O)NCC(=O)O)C(C)C [Example 1, 18Cys GLP-1-disialo] (H-HAEGTFTSDVSC(X1)YLEGQAAKEFIAWLVKGRG-OH) | strong effect of suppressing rise in blood-sugar levels |  |  |  |  |  | 
2 | CC[C@H](C)[C@H](NC(=O)[C@H](Cc1ccccc1)NC(=O)[C@H](CCC(=O)O)NC(=O)[C@H](CSCC(=O)N[C@@H]1O[C@H](CO)[C@@H](O[C@@H]2O[C@H](CO)[C@@H](O[C@@H]3O[C@H](CO[C@H]4O[C@H](CO)[C@@H](O)[C@H](O)[C@@H]4O[C@@H]4O[C@H](CO)[C@@H](O[C@@H]5O[C@H](CO[C@]6(C(=O)O)C[C@H](O)[C@@H](NC(C)=O)[C@H]([C@H](O)[C@H](O)CO)O6)[C@H](O)[C@H](O)[C@H]5O)[C@H](O)[C@H]4NC(C)=O)[C@@H](O)[C@H](O[C@H]4O[C@H](CO)[C@@H](O)[C@H](O)[C@@H]4O[C@@H]4O[C@H](CO)[C@@H](O[C@@H]5O[C@H](CO[C@]6(C(=O)O)C[C@H](O)[C@@H](NC(C)=O)[C@H]([C@H](O)[C@H](O)CO)O6)[C@H](O)[C@H](O)[C@H]5O)[C@H](O)[C@H]4NC(C)=O)[C@@H]3O)[C@H](O)[C@H]2NC(C)=O)[C@H](O)[C@H]1NC(C)=O)NC(=O)[C@H](C)NC(=O)[C@H](C)NC(=O)[C@H](CCC(N)=O)NC(=O)CNC(=O)[C@H](CCC(=O)O)NC(=O)[C@H](CC(C)C)NC(=O)[C@H](Cc1ccc(O)cc1)NC(=O)[C@H](CO)NC(=O)[C@H](CO)NC(=O)[C@@H](NC(=O)[C@H](CC(=O)O)NC(=O)[C@H](CO)NC(=O)[C@@H](NC(=O)[C@H](Cc1ccccc1)NC(=O)[C@@H](NC(=O)CNC(=O)[C@H](CCC(=O)O)NC(=O)[C@H](C)NC(=O)[C@@H](N)Cc1c[nH]cn1)[C@@H](C)O)[C@@H](C)O)C(C)C)C(=O)N[C@@H](C)C(=O)N[C@@H](Cc1c[nH]c2ccccc12)C(=O)N[C@@H](CC(C)C)C(=O)N[C@H](C(=O)N[C@@H](CCCCN)C(=O)NCC(=O)N[C@@H](CCCNC(=N)N)C(=O)NCC(=O)O)C(C)C [Example 3, 26Cys GLP-1-disialo] | strong effect of suppressing rise in blood-sugar levels | strong effect of lowering blood-sugar levels | effects of lowering blood-sugar levels were slightly weakened over time | about ½ | dose-dependent activity of suppressing rise in blood-sugar levels |  | 
3 | CC[C@H](C)[C@H](NC(=O)[C@H](Cc1ccccc1)NC(=O)[C@H](CCC(=O)O)NC(=O)[C@H](CCCCN)NC(=O)[C@H](C)NC(=O)[C@H](C)NC(=O)[C@H](CCC(N)=O)NC(=O)CNC(=O)[C@H](CCC(=O)O)NC(=O)[C@H](CSCC(=O)N[C@@H]1O[C@H](CO)[C@@H](O[C@@H]2O[C@H](CO)[C@@H](O[C@@H]3O[C@H](CO[C@H]4O[C@H](CO)[C@@H](O)[C@H](O)[C@@H]4O[C@@H]4O[C@H](CO)[C@@H](O[C@@H]5O[C@H](CO[C@]6(C(=O)O)C[C@H](O)[C@@H](NC(C)=O)[C@H]([C@H](O)[C@H](O)CO)O6)[C@H](O)[C@H](O)[C@H]5O)[C@H](O)[C@H]4NC(C)=O)[C@@H](O)[C@H](O[C@H]4O[C@H](CO)[C@@H](O)[C@H](O)[C@@H]4O[C@@H]4O[C@H](CO)[C@@H](O[C@@H]5O[C@H](CO[C@]6(C(=O)O)C[C@H](O)[C@@H](NC(C)=O)[C@H]([C@H](O)[C@H](O)CO)O6)[C@H](O)[C@H](O)[C@H]5O)[C@H](O)[C@H]4NC(C)=O)[C@@H]3O)[C@H](O)[C@H]2NC(C)=O)[C@H](O)[C@H]1NC(C)=O)NC(=O)[C@H](Cc1ccc(O)cc1)NC(=O)[C@H](CO)NC(=O)[C@H](CO)NC(=O)[C@@H](NC(=O)[C@H](CC(=O)O)NC(=O)[C@H](CO)NC(=O)[C@@H](NC(=O)[C@H](Cc1ccccc1)NC(=O)[C@@H](NC(=O)CNC(=O)[C@H](CCC(=O)O)NC(=O)[C@H](C)NC(=O)[C@@H](N)Cc1c[nH]cn1)[C@@H](C)O)[C@@H](C)O)C(C)C)C(=O)N[C@@H](C)C(=O)N[C@@H](Cc1c[nH]c2ccccc12)C(=O)N[C@@H](CC(C)C)C(=O)N[C@H](C(=O)N[C@@H](CCCCN)C(=O)NCC(=O)N[C@@H](CCCNC(=N)N)C(=O)NCC(=O)O)C(C)C [Example 16, 20Cys GLP-1-disialo] (H-HAEGTFTSDVSSYC(X1)EGQAAKEFIAWLVKGRG-OH) | strong effect of suppressing rise in blood-sugar levels |  |  |  |  |  | 
4 | CC[C@H](C)[C@H](NC(=O)[C@H](Cc1ccccc1)NC(=O)[C@H](CCC(=O)O)NC(=O)[C@H](CCCCN)NC(=O)[C@H](C)NC(=O)[C@H](C)NC(=O)[C@H](CCC(N)=O)NC(=O)CNC(=O)[C@H](CCC(=O)O)NC(=O)[C@H](CC(C)C)NC(=O)[C@H](Cc1ccc(O)cc1)NC(=O)[C@H](CSCC(=O)N[C@@H]1O[C@H](CO)[C@@H](O[C@@H]2O[C@H](CO)[C@@H](O[C@@H]3O[C@H](CO[C@H]4O[C@H](CO)[C@@H](O)[C@H](O)[C@@H]4O[C@@H]4O[C@H](CO)[C@@H](O[C@@H]5O[C@H](CO[C@]6(C(=O)O)C[C@H](O)[C@@H](NC(C)=O)[C@H]([C@H](O)[C@H](O)CO)O6)[C@H](O)[C@H](O)[C@H]5O)[C@H](O)[C@H]4NC(C)=O)[C@@H](O)[C@H](O[C@H]4O[C@H](CO)[C@@H](O)[C@H](O)[C@@H]4O[C@@H]4O[C@H](CO)[C@@H](O[C@@H]5O[C@H](CO[C@]6(C(=O)O)C[C@H](O)[C@@H](NC(C)=O)[C@H]([C@H](O)[C@H](O)CO)O6)[C@H](O)[C@H](O)[C@H]5O)[C@H](O)[C@H]4NC(C)=O)[C@@H]3O)[C@H](O)[C@H]2NC(C)=O)[C@H](O)[C@H]1NC(C)=O)NC(=O)[C@H](CO)NC(=O)[C@@H](NC(=O)[C@H](CC(=O)O)NC(=O)[C@H](CO)NC(=O)[C@@H](NC(=O)[C@H](Cc1ccccc1)NC(=O)[C@@H](NC(=O)CNC(=O)[C@H](CCC(=O)O)NC(=O)[C@H](C)NC(=O)[C@@H](N)Cc1c[nH]cn1)[C@@H](C)O)[C@@H](C)O)C(C)C)C(=O)N[C@@H](C)C(=O)N[C@@H](Cc1c[nH]c2ccccc12)C(=O)N[C@@H](CC(C)C)C(=O)N[C@H](C(=O)N[C@@H](CCCCN)C(=O)NCC(=O)N[C@@H](CSCC(=O)N[C@@H]1O[C@H](CO)[C@@H](O[C@@H]2O[C@H](CO)[C@@H](O[C@@H]3O[C@H](CO[C@H]4O[C@H](CO)[C@@H](O)[C@H](O)[C@@H]4O[C@@H]4O[C@H](CO)[C@@H](O[C@@H]5O[C@H](CO[C@]6(C(=O)O)C[C@H](O)[C@@H](NC(C)=O)[C@H]([C@H](O)[C@H](O)CO)O6)[C@H](O)[C@H](O)[C@H]5O)[C@H](O)[C@H]4NC(C)=O)[C@@H](O)[C@H](O[C@H]4O[C@H](CO)[C@@H](O)[C@H](O)[C@@H]4O[C@@H]4O[C@H](CO)[C@@H](O[C@@H]5O[C@H](CO[C@]6(C(=O)O)C[C@H](O)[C@@H](NC(C)=O)[C@H]([C@H](O)[C@H](O)CO)O6)[C@H](O)[C@H](O)[C@H]5O)[C@H](O)[C@H]4NC(C)=O)[C@@H]3O)[C@H](O)[C@H]2NC(C)=O)[C@H](O)[C@H]1NC(C)=O)C(=O)NCC(=O)O)C(C)C [Example 49, 18,36Cys GLP-1-disialo] | effect almost equivalent to that of the 36Cys GLP-1-disialo |  |  |  |  | almost equivalent to that of the GLP-1 at a dose of 9 nmol/kg | about 10 times

Reference: patent US7985731B2, “Sugar chain added GLP-1 peptide” (Otsuka Chemical Holdings Co., Ltd., priority 2007, dated 2011)
